Test results from patent publication US20240166624A1, “PPARG INVERSE AGONISTS AND USES THEREOF” (Flare Therapeutics Inc., priority 2021, published 2024).

What was measured:
[1] = test system: ANGPTL4, a PPARG target gene, in HT1197 (RXRA S427F mutation) cells; test: Bladder cancer pharmacodynamic assay, HT1197 cell assay (qPCR of ANGPTL4); format: cell-based; settings: Homo sapiens, 24 hours; for inhibition at 0.1 µM: 100 nM compound, relative to DMSO control
Outline: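 5637 (PPARG amplified) and HT1197 (RXRA S427F) cells treated 24 h with PPARG inverse agonists. FABP4 and ANGPTL4 expression measured by qPCR, normalised to TBP, and reported relative to DMSO control by ΔΔCt.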

[2] = molecular target: T1, PPARG/RXRA LBD heterodimer (Homo sapiens, UniProt P37231); test: PPARγ-MED1 blockade assay (TR-FRET, biotinylated MED1 LxxLL peptide); format: biochemical; settings: WT PPARG LBD/WT RXRA LBD, 80 nM Rosiglitazone, 3 hours
T1 construct: His-TEV-Q203-Y477; Uniprot ID P37231-2; made in house; host or cells: E. coli
T1 sequence (P37231 203-477 isoform P37231-2): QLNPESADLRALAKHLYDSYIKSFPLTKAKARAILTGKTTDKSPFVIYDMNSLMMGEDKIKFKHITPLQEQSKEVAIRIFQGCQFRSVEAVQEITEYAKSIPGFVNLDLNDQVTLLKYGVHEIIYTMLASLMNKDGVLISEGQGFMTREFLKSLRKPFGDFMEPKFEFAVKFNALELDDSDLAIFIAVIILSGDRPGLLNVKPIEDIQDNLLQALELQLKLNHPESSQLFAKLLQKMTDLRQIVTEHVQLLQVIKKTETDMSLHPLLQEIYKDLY
T1 sequence (P19793 228-462 partner limits assumed): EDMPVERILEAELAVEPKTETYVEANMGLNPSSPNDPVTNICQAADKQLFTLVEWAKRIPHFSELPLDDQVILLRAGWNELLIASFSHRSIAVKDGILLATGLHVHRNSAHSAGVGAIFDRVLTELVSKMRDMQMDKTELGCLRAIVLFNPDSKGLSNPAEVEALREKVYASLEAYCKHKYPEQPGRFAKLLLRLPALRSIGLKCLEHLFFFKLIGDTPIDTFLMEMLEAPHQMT
Outline: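 TR-FRET measuring biotinylated MED1 LxxLL peptide association with 2 nM each His-PPARG LBD (Q203-Y477) and Flag-RXRA LBD (E228-T462), E. coli expressed. Read after 3 h incubation; ratios normalized to DMSO (0%) and GW9662 minimum (100%) for IC50 and maximal MED1 repulsion.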

[3] = molecular target: T2, PPARG/RXRA LBD heterodimer (Homo sapiens, UniProt P37231); test: PPARγ-NCOR1 recruitment assay (TR-FRET, biotinylated NCOR1 ID2 peptide); format: biochemical; settings: 80 nM Rosiglitazone, 3 hours, read-out: PPARG-NCOR recruitment assay EC50
T2 construct: His-TEV-Q203-Y477; Uniprot ID P37231-2; made in house; host or cells: E. coli
Outline: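 2 nM each of E. coli-expressed PPARG LBD (Q203-Y477) and RXRA LBD (WT or S427F, E228-T462) with biotinylated NCOR1 ID2 peptide, incubated 3 h; TR-FRET read at Ex/Em 615/665. Ratios normalized to DMSO (0%) and T0070907 maximum (100%) for EC50 and maximal recruitment.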
T2 sequence (O75376 2251-2273 partner, one chain of several): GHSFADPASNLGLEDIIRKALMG

[4] = test system: FABP4, a PPARG target gene, in 5637 (PPARG amplified) cells; test: Bladder cancer pharmacodynamic assay, 5637 cell assay (qPCR of FABP4); format: cell-based; settings: 5637 cells, 24 hours, 100 nM compound, relative to DMSO control
Description: Bladder Cancer Pharmacodynamic Assay
5637 (PPARG amplified) and HT1197 (RXRA S427F mutation) cells were used for assessment of modulation of PPARG target genes using quantitative PCR. Cells were treated for 24 hours with PPARG inverse agonists prior to analysis of FABP4 (IDT, Cat: Hs.PT 58.20106818) and ANGPTL4 (IDT, Cat: Hs.PT 58.25480012) expression, with expression of the housekeeping gene TBP (IDT, Cat: Hs.PT 58v.39858774) used to normalize expression across samples. Quantitative PCR was performed using an ABI QuantStudio 7 Flex Reaction system. Data were analyzed and reported relative to DMSO control using the comparative Ct method (ΔΔCt).

EC50 ([1]; ANGPTL4 expression) [nM]	EC50 [2] [nM]	EC50 [3] [nM]	SMILES	inhibition at 0.1 µM [1] [%]	inhibition at 0.1 µM [4] [%]
5	100 to 1000	100 to 1000	N#Cc1ccc(Cl)c(-c2cc(=O)c3c(F)cc(F)cc3[nH]2)c1 [Example 1, 4-chloro-3-(5,7-difluoro-4-oxo-1,4-dihydroquinolin-2-yl)benzonitrile]	88	95
	1000 to 10000	1000 to 10000	N#Cc1ccc(Cl)c(-c2cc(=O)c3cc(F)c(F)cc3[nH]2)c1 [Example 5, 4-chloro-3-(6,7-difluoro-4-oxo-1H-quinolin-2-yl)benzonitrile]	86	90
	100 to 1000	100 to 1000	N#Cc1ccc(Br)c(-c2cc(=O)c3cc(F)c(F)cc3[nH]2)c1 [Example 6, 4-bromo-3-(6,7-difluoro-4-oxo-1,4-dihydroquinolin-2-yl)benzonitrile]		93

Second part, the molecule before the results:

SMILES	EC50 ([1]; ANGPTL4 expression) [nM]	EC50 [2] [nM]	EC50 [3] [nM]	inhibition at 0.1 µM [1] [%]	inhibition at 0.1 µM [4] [%]
N#Cc1ccc(Cl)c(-c2cc(=O)c3cc(Cl)c(Cl)cc3[nH]2)c1 [Example 2, 4-chloro-3-(6,7-dichloro-4-oxo-1,4-dihydroquinolin-2-yl)benzonitrile]		100 to 1000	100 to 1000	83	93
N#Cc1ccc(Br)c(-c2cc(=O)c3c(F)cc(F)cc3[nH]2)c1 [Example 4, 4-bromo-3-(5,7-difluoro-4-oxo-1,4-dihydroquinolin-2-yl)benzonitrile]		10 to 100	10 to 100	90	94
N#Cc1ccc(Cl)c(-c2cc(=O)c3c(F)c(-c4ccc(C(F)(F)F)cc4)c(F)cc3[nH]2)c1 [Example 11, 4-chloro-3-(5,7-difluoro-4-oxo-6-(4-(trifluoromethyl)phenyl)-1,4-dihydroquinolin-2-yl)benzonitrile]		100 to 1000	10 to 100	88	94
